Measurements: patent US9011863B2, “Combinations of kinase inhibitors for the treatment of cancer” (Exelixis, Inc., priority 2010, dated 2015)
Read-outs that look alike come from different tables or passages of the source.

Legend:
[1] = biological target: p110α catalytic subunit of PI3K (Homo sapiens, UniProt P42336); assay: in vitro PI3K assay (PI3K-induced ATP consumption); type: biochemical; settings: read-out: in vitro IC50 against p110α
Description: Compounds of formula I have been tested using the assay described in Biological Example 1 of WO2007044729 and have been determined to be PI3K inhibitors. As such, compounds of formula I are useful for treating diseases, particularly cancer in which PI3K activity contributes to the pathology and/or symptomatology of the disease. For example, cancer in which PI3K activity contributes to its pathology and/or symptomatology include breast cancer, colon cancer, rectal cancer, endometrial cancer, gastric carcinoma, glioblastoma, hepatocellular carcinoma, small cell lung cancer, non-small cell lung cancer, melanoma, ovarian cancer, pancreatic cancer, prostate carcinoma, acute myelogenous leukemia (AML), chronic myelogenous leukemia (CML), and thyroid carcinoma, and the like.
Suitable in vitro assays for measuring PI3K activity and the inhibition thereof by compounds are known. Typically, the assay will measure PI3K-induced ATP consumption. […] Cellular activity can be determined using assays as described in Biological Examples 2, 3, and 4 of WO2007044729. […]
The purpose of the present study is to identify kinases and kinase-regulated signaling pathways that compensate for PI3K inhibition in human breast cancer cells. […] Gene expression from three independent experiments was measured using the Gene titan 3′ microarray. *, p<0.05; **, p<0.01 versus 0 hours, as shown in FIG. 5. […]

[2] = tested on: HCC1937 human breast cancer cells; assay: HCC1937 cell viability, alamar blue assay; type: cell-based; settings: read-out: growth inhibition IC50
Protocol: FIG. 1B. siRNA screen to identify kinases that potentially compensate for PI3K inhibition. HCC1937 cells were seeded in triplicate in a 96-well plate and treated with DMSO or the indicated concentration of compound A for 72 hours. Cell viability was measured by the alamar blue assay.
The purpose of the present study is to identify kinases and kinase-regulated signaling pathways that compensate for PI3K inhibition in human breast cancer cells. To this end, siRNA screen is employed targeting 779 human kinases in order to determine if downregulation of specific kinases increases the sensitivity of HCC1937 human breast cancer cells to the PI3K inhibitor compound A, which a compound of formula I and of Table 1. […] Following reverse transfection with the siRNA library, cells are treated with either DMSO or 10 μM compound A for 72 hours in a medium containing 2.5% fetal bovine serum (FIGS. 1A and 2) and the alamar blue assay is used to measure cell viability FIG. 1B. […] HCC1937 cells were treated with 10 μM compound A in medium containing 2.5% FBS for 0, 2, 8, or 24 hours. RNA was isolated with Trizol and purified using the RNeasy column (Qiagen). Gene expression from three independent experiments was measured using the Gene titan 3′ microarray. *, p<0.05; **, p<0.01 versus 0 hours, as shown in FIG. 5.

[3] = Protocol: The lung cancer cell line A549 was selected for this study. […] Lung A549 cells were implanted s.c. in female Swiss nude mice using standard techniques. […] Control groups were left untreated. […]
For the evaluation of anti-tumor activity of conjugates, animals were weighed daily and tumors were measured twice weekly by caliper. A dosage producing a 20% weight loss at nadir (mean of group) or a 15% weight loss (mean of group) three successive times or drug deaths, was considered an excessively toxic dosage. Animal body weights included the tumor weights. Tumor weights were calculated using the formula mass (mg)=[length (mm)×width (mm)2]/2. The primary efficacy end points are ΔT/ΔT, percent median regression, partial and complete regressions (PR and CR), and Tumor free survivors (TFS). Changes in tumor volume for each treated (T) and control (C) were calculated for each tumor by subtracting the tumor volume on the day of first treatment (staging day) from the tumor volume on the specified observation day. The median ΔT was calculated for the treated group, and the median ΔT was calculated for the control group. Then the ratio ΔT/ΔT was calculated and expressed as a percentage: ΔT/ΔT=(delta T/delta C)×100. A dose is considered therapeutically active when ΔT/ΔT is lower than 40% and very active when ΔT/ΔT is lower than 10%. […] Percent tumor regression is defined as the percent of tumor volume decrease in the treated group at a specified observation day compared to its volume on the first day of first treatment. At a specific time point and for each animal, percent regression is calculated. The median percent regression is then calculated for the group. % regression (at t)=[volumet0−volumet/volument0]×100. Partial regression (PR): Regressions are defined as partial if the tumor volume decreases to 50% of the tumor volume at the start of treatment. Complete regression (CR): Complete regression is achieved when tumor volume=0 mm^3 (CR is considered when tumor volume cannot be recorded). TFS: Tumor free is defined as the animals with undetectable tumors at the end of the study (>100 days post last treatment).

[4] = tested on: HER3 expression in A549 human lung xenografts; assay: HER3 modulation in A549 tumors; type: in vivo, Swiss nude mice
Protocol: Briefly, mice bearing measurable lung A549 tumors implanted SC have been left untreated or treated either by MM121 as a single agent (at dose of 5 mg/kg or 30 mg/kg, one administration) or by compound A as a single agent (at dose of 30 mg/kg or 100 mg/kg, daily administrations) or by a combination of both (at 30 mg/kg for MM121 and 100 mg/kg for compound A). The HER3 expression level in xenografted tumors has been followed for up to 96 hours.

[5] = Compound A PO 5 (160) mg/kg Q1Dx32
[6] = Compound A PO 100 (3200) mg/kg Q1Dx32

Sequence of p110α catalytic subunit of PI3K (P42336 whole entry): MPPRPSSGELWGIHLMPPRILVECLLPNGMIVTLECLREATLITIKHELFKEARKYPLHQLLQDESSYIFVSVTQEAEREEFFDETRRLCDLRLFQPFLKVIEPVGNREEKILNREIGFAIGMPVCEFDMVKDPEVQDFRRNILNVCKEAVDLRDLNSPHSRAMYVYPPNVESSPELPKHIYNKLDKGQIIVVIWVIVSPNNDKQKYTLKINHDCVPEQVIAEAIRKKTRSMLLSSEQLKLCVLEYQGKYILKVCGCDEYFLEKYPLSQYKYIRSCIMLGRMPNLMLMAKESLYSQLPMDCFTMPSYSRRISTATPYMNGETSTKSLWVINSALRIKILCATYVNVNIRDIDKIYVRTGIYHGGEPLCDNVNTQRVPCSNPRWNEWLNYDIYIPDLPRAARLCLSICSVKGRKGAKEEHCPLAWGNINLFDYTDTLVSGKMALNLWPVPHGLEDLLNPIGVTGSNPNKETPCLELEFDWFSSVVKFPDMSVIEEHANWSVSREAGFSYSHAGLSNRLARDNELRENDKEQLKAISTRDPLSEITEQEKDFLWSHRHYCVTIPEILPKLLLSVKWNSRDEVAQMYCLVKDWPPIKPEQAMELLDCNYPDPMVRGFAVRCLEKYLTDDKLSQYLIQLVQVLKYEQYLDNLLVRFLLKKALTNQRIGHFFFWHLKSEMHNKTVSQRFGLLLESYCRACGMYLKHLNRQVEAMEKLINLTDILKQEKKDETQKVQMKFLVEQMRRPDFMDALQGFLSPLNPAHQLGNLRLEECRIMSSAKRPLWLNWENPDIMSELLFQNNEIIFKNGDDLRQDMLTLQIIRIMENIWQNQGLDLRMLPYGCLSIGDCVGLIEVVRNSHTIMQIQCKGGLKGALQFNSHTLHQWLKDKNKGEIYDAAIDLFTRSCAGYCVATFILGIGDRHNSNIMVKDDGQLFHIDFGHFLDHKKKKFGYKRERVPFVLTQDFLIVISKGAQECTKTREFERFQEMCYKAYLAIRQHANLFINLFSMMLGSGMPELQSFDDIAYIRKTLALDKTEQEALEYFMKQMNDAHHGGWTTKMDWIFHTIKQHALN
Sequence of p110α catalytic subunit of PI3K (P27986 whole entry partner): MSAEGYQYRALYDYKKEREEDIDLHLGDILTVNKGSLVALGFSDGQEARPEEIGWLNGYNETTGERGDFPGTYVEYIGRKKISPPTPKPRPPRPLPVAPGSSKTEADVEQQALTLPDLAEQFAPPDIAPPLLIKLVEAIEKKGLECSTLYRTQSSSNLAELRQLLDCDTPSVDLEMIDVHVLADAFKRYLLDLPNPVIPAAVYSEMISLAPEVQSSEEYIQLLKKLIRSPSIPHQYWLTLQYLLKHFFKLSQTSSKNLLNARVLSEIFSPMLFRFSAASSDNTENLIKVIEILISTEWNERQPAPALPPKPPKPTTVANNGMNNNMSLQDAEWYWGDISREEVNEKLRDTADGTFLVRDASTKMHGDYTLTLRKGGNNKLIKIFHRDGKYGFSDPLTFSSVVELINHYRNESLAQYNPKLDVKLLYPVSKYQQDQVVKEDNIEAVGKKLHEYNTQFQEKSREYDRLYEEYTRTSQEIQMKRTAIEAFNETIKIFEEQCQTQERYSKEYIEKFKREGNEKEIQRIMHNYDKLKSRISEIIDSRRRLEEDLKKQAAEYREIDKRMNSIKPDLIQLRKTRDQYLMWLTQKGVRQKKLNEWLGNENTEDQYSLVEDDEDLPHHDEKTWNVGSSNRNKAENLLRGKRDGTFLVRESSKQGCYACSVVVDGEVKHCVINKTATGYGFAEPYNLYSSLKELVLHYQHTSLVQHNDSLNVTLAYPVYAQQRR

SMILES: COc1ccc(Cl)c(Nc2nc3ccccc3nc2NS(=O)(=O)c2cccc(NC(=O)C(C)(C)N)c2)c1 [Compound A]
- IC50 [1]: 0.039 µM
- IC50 [2]: 10 µM
- Average body weight change in % per mouse at nadir [3, 5]: −7.34%
- Drug death (Day of death) [3, 5]: 0/7
- day of nadir [3, 5]: 65 days
- Average body weight change in % per mouse at nadir [3, 6]: −10.25%
- Drug death (Day of death) [3, 6]: 0/7
- day of nadir [3, 6]: 65 days
- Average body weight change in % per mouse at nadir ([3]; Compound A PO 100 (3200) mg/kg Q1Dx32, listed as compound A): −10.3%
- body weight loss at nadir ([3]; compound A at 30 mg/kg PO daily): −7.3%
- HER3 expression, Change vs Control (%) ([4]; Compound A 30 mg/kg PO: Q1Dx1, 4 h): −3%
- HER3 expression, Change vs Control (%) ([4]; Compound A 30 mg/kg PO: Q1Dx1, 24 h): 12%
- HER3 expression, Change vs Control (%) ([4]; Compound A 30 mg/kg PO: Q1Dx2, 24 h): 23%
- HER3 expression, Change vs Control (%) ([4]; Compound A 30 mg/kg PO: Q1Dx3, 24 h): 27%
- HER3 expression, Change vs Control (%) ([4]; Compound A 100 mg/kg PO: Q1Dx1, 4 h): 10%
- HER3 expression, Change vs Control (%) ([4]; Compound A 100 mg/kg PO: Q1Dx1, 24 h): 19%
- HER3 expression, Change vs Control (%) ([4]; Compound A 100 mg/kg PO: Q1Dx2, 24 h): 45%
- HER3 expression, Change vs Control (%) ([4]; Compound A 100 mg/kg PO: Q1Dx3, 24 h): 37%
- HER3 expression in A549 lung model (summary of Table 5) ([4]; up to 96 hours): slight increase of HER3 expression
